Patent US12077501B2, “Compounds and compositions for intracellular delivery of agents” (ModernaTX, Inc., priority 2017, dated 2024)

Experiments:
[1] = Particle size and polydispersity index of nanoparticle compositions (Zetasizer Nano ZS); format: physicochemical; details: Table 1c; nanoparticle compositions
Description: A Zetasizer Nano ZS (Malvem Instruments Ltd, Malvem, Worcestershire, UK) can be used to determine the particle size, the polydispersity index (PDI) and the zeta potential of the nanoparticle compositions in 1×PBS in determining particle size and 15 mM PBS in determining zeta potential.

[2] = pKa of nanoparticle compositions; format: physicochemical
[3] = Lipid purity change after storage in EtOH for 96 h at 25 or 37 °C; format: physicochemical
Description: Nanoparticle compositions including a therapeutic and/or prophylactic agent can be optimized according to the selection of a compound according to one of formulae (I), (Ia1)-(Ia10), (Ib), (Ic), (Id), (Id1)-(Id10), (Ie), (Ie1)-(Ie6), (II), (IIa), (III), and (IIIa), the selection of additional lipids, the amount of each lipid in the lipid component, and the wt:wt ratio of the lipid component to the therapeutic and/or prophylactic agent, as described herein. Initial studies were performed to compare the delivery efficiency of nanoparticle compositions including various compounds according to one of formulae (I), (Ia1)-(Ia10), (Ib), (Ic), (Id), (Id1)-(Id10), (Ie), (Ie1)-(Ie6), (II), (IIa), (III), and (IIIa). The cationic lipid MC3 is a current standard in the art. Also determined was the stability of nanoparticles of the disclosure, i.e., the purity after storage in EtOH for 96h at 25° C. or 37° C. (Table Id).

[4] = Encapsulation efficiency of RNA (QUANT-IT RIBOGREEN RNA assay); format: physicochemical; details: Table 1c; nanoparticle compositions
Description: For nanoparticle compositions including an RNA, a QUANT-IT™ RIBOGREEN® RNA assay (Invitrogen Corporation Carlsbad, CA) can be used to evaluate the encapsulation of an RNA by the nanoparticle composition. The samples are diluted to a concentration of approximately 5 μg/mL in a TE buffer solution (10 mM Tris-HCl, 1 mM EDTA, pH 7.5). 50 μL of the diluted samples are transferred to a polystyrene 96 well plate and either 50 μL of TE buffer or 50 μL of a 2% Triton X-100 solution is added to the wells. The plate is incubated at a temperature of 37° C. for 15 minutes. The RIBOGREEN® reagent is diluted 1:100 in TE buffer, and 100 μL of this solution is added to each well. The fluorescence intensity can be measured using a fluorescence plate reader (Wallac Victor 1420 Multilablel Counter; Perkin Elmer, Waltham, MA) at an excitation wavelength of, for example, about 480 nm and an emission wavelength of, for example, about 520 nm. The fluorescence values of the reagent blank are subtracted from that of each of the samples and the percentage of free RNA is determined by dividing the fluorescence intensity of the intact sample (without addition of Triton X-100) by the fluorescence value of the disrupted sample (caused by the addition of Triton X-100).

[5] = Lipid clearance: % dose remaining in liver of CD-1 mice; format: in vivo; details: intravenous, 0.5 mg/kg, CD-1 mouse, Table 8a
Text: In contrast, hEPO expression in rats induced by administration of a nanoparticle composition including a compound according to one of formulae (I), (Ia1)-(Ia6), (Ib), (II), (IIa), (III), and (IIIa) was substantially […] than that measured for MC3. […] Tables 7c and 7d show additional protein expressions and clearance data from compositions with various compounds disclosed herein as compared to with MC3. Tables 7e, 7f and 7g show hEPO expression data in CD-1 mice at a dose of 0.5 mpk.

| Structure (SMILES) | PDI [1] | Size (nm) [1] | pKa ([2]; Table 1c) | Lipid % change purity in EtOH, 25° C., 96 h [3] | Lipid % change purity in EtOH, 37° C., 96 h [3] | EE (%) [4] | % Dose Remaining 24 hr [5] | pKa ([2]; Table 1b) | % Dose Remaining 6 hr [5] |
| --- | --- | --- | --- | --- | --- | --- | --- | --- | --- |
| CCCCC/C=C\CCN(CC/C=C\CCCCC)CCN(CC/C=C\CCCCC)CC(=O)N1CCN(C(=O)CN(CCCCCCCCC)CCCCCCCCC)CC1 [Compound 136, 2-((2-(Di((Z)-non-3-en-1-yl)amino)ethyl)((Z)-non-3-en-1-yl)amino)-1-(4-(dinonylglycyl)piperazin-1-yl)ethan-1-one] | 0.23 | 72.1 nm | 6.13 | −0.71% | 0.77% | 97.7% | 56.18% |  |  |
| CCCCCCCCCN(CCCCCCCCC)CCN(CCCCCCCCC)CC(=O)N1CCN(C(=O)CN(CCCCCCCCC)CCCC(=O)SCCCCC)CC1 [Compound 134, S-Pentyl 4-((2-(4-(N-(2-(dinonylamino)ethyl)-N-nonylglycyl)piperazin-1-yl)-2-oxoethyl)(nonyl)amino)butanethioate] | 0.21 | 82.1 nm | 6.85 | 1.60% | 11.81% | 96.7% | 33.71% |  |  |
| CCCCCCCCCN(CCCOC(=O)CCCCC)CCC(=O)N1CCN(C(=O)CCN(CCCCCCCCC)CCN(CCCCCCCCC)CCCCCCCCC)CC1 [Compound 86, 3-((3-(4-(3-((2-(Dinonylamino)ethyl)(nonyl)amino)propanoyl)piperazin-1-yl)-3-oxopropyl)(nonyl)amino)propyl hexanoate] |  |  |  | 8.1% | 20.8% |  | 0.12% | 7.58 | 0.16% |
| CCCCC/C=C\CCN(CC/C=C\CCCCC)CCN(CC/C=C\CCCCC)CC(=O)N1CCN(C(=O)CN(CCCCCCCCC)CCCCCCCC(=O)OC)CC1 [Compound 139, Methyl 8-((2-(4-(N-(2-(Di((Z)-non-3-en-1-yl)amino)ethyl)-N—((Z)-non-3-en-1-yl)glycyl)piperazin-1-yl)-2-oxoethyl)(nonyl)amino)octanoate] | 0.23 | 83.8 nm | 6.15 | 0.67% | 1.49% | 94.8% | 0.29% |  |  |
| CCCCCCCCCN(CCCCCCCCC)CCN(CCCCCCCCC)CC(=O)N1CCN(C(=O)CCCC(=O)OCCCCCCC)CC1 [Compound 144, Heptyl 5-(4-(N-(2-(dinonylamino)ethyl)-N-nonylglycyl)piperazin-1-yl)-5-oxopentanoate] | 0.19 | 83.3 nm | 7.59 | 5.06% | 7.63% | 97.2% | 3.25% |  |  |
| CCCCCCCCCCCCN(CCCOC(=O)CCCCCCC)CC(=O)N1CCN(C(=O)CN(CCCCCCCCC)CCN(CCCCCCCCC)CCCCCCCCC)CC1 [Compound 135, 3-((2-(4-(N-(2-(Dinonylamino)ethyl)-N-nonylglycyl)piperazin-1-yl)-2-oxoethyl)(dodecyl)amino)propyl Octanoate] | 0.22 | 81.1 nm | 6.90 | 2.26% | 4.09% | 98.6% | 0.16% |  |  |
| CCCCCCCCCN(CCCCCCCCC)CCN(CCCCCCCCC)CC(=O)N1CCC(CCN(CCCCCCCCC)CC(C)COC(=O)CCCCC)CC1 (stereo not shown) [Compound 132, 3-((2-(1-(N-(2-(Dinonylamino)ethyl)-N-nonylglycyl)piperidin-4-yl)ethyl)(nonyl)amino)-2-methylpropyl hexanoate] | 0.23 | 83.1 nm | 6.49 | 1.84% | 5.54% | 98.6% | 0.81% |  |  |
| CCCCCCCCCN(CCCCCCCCC)CCN(CCCCCCCCC)CC(=O)N1CCN(C(=O)CN(CCCCCCCCC)CC(C)COC(=O)CCCCC)CC1 (stereo not shown) [Compound 130, 3-((2-(4-(N-(2-(Dinonylamino)ethyl)-N-nonylglycyl)piperazin-1-yl)-2-oxoethyl)(nonyl)amino)-2-methylpropyl hexanoate] | 0.23 | 84.9 nm | 6.90 | 3.54% | 4.46% | 98.0% | 2.33% |  |  |
| CCCCCC/C=C\CC(=O)OCCCN(CCCCCCCCCCCCCC)CC(=O)N1CCN(C(=O)CN(CCCCCCCCC)CCN(CCCCCCCCC)CCCCCCCCC)CC1 [Compound 137, 3-((2-(4-(N-(2-(Dinonylamino)ethyl)-N-nonylglycyl)piperazin-1-yl)-2-oxoethyl)(tetradecyl)amino)propyl (Z)-dec-3-enoate] | 0.22 | 78.5 nm | 6.93 | 0.36% | 1.17% | 98.8% | 0.26% |  |  |
| CCCCCCCCCN(CCCCCCCCC)CCN(CCCCCCCCC)CCOC(=O)C1CCN(C(=O)CN(CCCCCCCCC)CCCCCCCCC)CC1 [Compound 129, 2-((2-(Dinonylamino)ethyl)(nonyl)amino)ethyl 1-(dinonylglycyl)piperidine-4-carboxylate] | 0.24 | 70.3 nm | 5.17 | 8.46% | 15.47% | 96.9% | 9.10% |  |  |
| CCCCCCCCCN(CCCC(=O)OCCCCC)CCC1CCN(C(=O)CN(CCCCCCCCC)CCN(CCCCCCCCC)CCCCCCCCC)CC1 [Compound 83, Pentyl 4-((2-(1-(N-(2-(dinonylamino)ethyl)-N-nonylglycyl)piperidin-4-yl)ethyl)(nonyl)amino)butanoate] |  |  |  |  |  |  | 30.54% | 6.72 | 31.32% |
| CCCCCCCCCCCC(=O)N1CCN(C(=O)CN(CCCCCCCCC)CCN(CCCCCCCCC)CCCCCCCCC)CC1 [Compound 143, 1-(4-(N-(2-(Dinonylamino)ethyl)-N-nonylglycyl)piperazin-1-yl)dodecan-1-one] | 0.21 | 93.7 nm | 7.26 | 1.10% | 1.80% | 97.4% | 38.63% |  |  |
| CCCCCCCCCN(CCCOC(=O)CCCCC)CCCC1CCN(C(=O)CCN(CCCCCCCCC)CCN(CCCCCCCCC)CCCCCCCCC)CC1 [Compound 87, 3-((3-(1-(3-((2-(Dinonylamino)ethyl)(nonyl)amino)propanoyl)piperidin-4-yl)propyl)(nonyl)amino)propyl Hexanoate] |  |  |  |  |  |  | 0.05% | 6.79 | 0.07% |
| CCCCCCCCCN(CCCCCCCCC)CCN(CCCCCCCCC)CC(=O)N1CCN(C(=O)CN(CCCCCCCCC)CCCOC(=O)CC(C)CCC)CC1 (stereo not shown) [Compound 131, 3-((2-(4-(N-(2-(Dinonylamino)ethyl)-N-nonylglycyl)piperazin-1-yl)-2-oxoethyl)(nonyl)amino)propyl 3-methylhexanoate] | 0.17 | 85.4 nm | 7.02 | 11.96% | 12.43% | 98.5% | 80.27% |  |  |
| CCCCCCCCCN(CCCCCCCCC)CCC1CCCN(C(=O)CN(CCCCCCCCC)CCN(CCCCCCCCC)CCCCCCCCC)C1 (stereo not shown) [Compound 73, 2-((2-(Dinonylamino)ethyl)(nonyl)amino)-1-(3-(2-(dinonylamino)ethyl)piperidin-1-yl)ethan-1-one] |  |  |  |  |  |  | 64.75% | 6.65 | 68.53% |
